# Experiments:
# [1] = tested on: HeLa cells; assay: Apoptosis assay, annexin-V-FITC/PI flow cytometry; format: cell-based, human
# Protocol: The quantification of the apoptosis induced by the test compounds was carried out by flow cytometric analysis using the Annexin-V Fluos kit (Roche Diagnostics, Rotkreuz, Switzerland) following the manufacturer’s instructions. The HeLa cells treated with the test compounds for different incubation times and at the indicated concentrations were then labeled with annexin V/FITC and PI and analyzed with Coulter Cytomics FC500 (Beckman Coulter) in the FL1 and FL3 channel, respectively.
# [2] = tested on: A549; assay: In vitro cell growth inhibition, resazurin viability assay; format: cell-based, human
# Summary of the method: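 Fluorescence read-out (ex 535 nm, em 600 nm) after 3–4 h resazurin, following 72 h compound exposure at 37 °C. Compounds: 5-fold serial dilutions, top 10 μM, triplicates. Seeding/well: HeLa, HT29 5000; A549 4000; MDA-MB-231 7000; HT29 in RPMI, rest DMEM, 10% FBS.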
# [3] = tested on: Wild-type AB zebrafish embryos; assay: Drug toxicity assessment on zebrafish embryos; format: in vivo, Zebrafish (Danio rerio); details: 6 hpf to 72 hpf
# Protocol: Zebrafish (Danio rerio) were obtained, staged and raised as described previously and maintained according to the OPBA of the Istituto di Ricerca Pediatrica guidelines. All procedures were conducted following the recommendations and the guidelines of the Animal Use Ethics Committee concerning the protection of animals used for scientific purposes.
# Wild-type AB zebrafish embryos were treated with chemicals from shield stage (6 hpf) to larval stage (72 hpf) in a 12-well plate, by adding 20 larvae/well for each experimental condition. The zebrafish embryos were treated with compound 3d at the concentration of 30 nm and 300 nM. These concentrations were selected on the basis of the IC50 found above in HeLa cells. The drugs were added directly to the fish water diluted directly from the stock solution in DMSO. […] Subsequently, the treated embryos were kept at a constant temperature (28.5 °C). Embryos are monitored daily through a stereo microscope (Nikon SMZ745T; Nikon, Japan) and the morphological changes as well as the number of dead embryos were evaluated and recorded.
# [4] = tested on: cdc2 (Y15); assay: Western blot analysis; format: cell-based, human; details: HeLa, 24 h
# Protocol: (§1) Hela cells treated with the test compounds were harvested by centrifugation and then lysed with 0.1% (v/v) Triton X-100 containing RNase A at 0 °C. The protein content of the solutions was measured and analyzed as described previously. The antibodies directed against cyclin B, cdc2 (Y15), ATR,Bcl-2, cleaved caspase-9 (D330) and actin were purchased from Cell Signaling. The membranes were visualized using ECL select (GE Healthcare, Uppsal, Sweden), and images were acquired using an Uvitec-Alliance imaging system.
# [5] = tested on: ATR; assay: Western blot analysis; format: cell-based, human; details: HeLa, 24 h
# Protocol: as §1
# [6] = tested on: Bcl-2; assay: Western blot analysis; format: cell-based, human; details: HeLa, 24 h
# Protocol: as §1
# [7] = tested on: cyclin B; assay: Western blot analysis; format: cell-based, human; details: HeLa, 24 h
# Protocol: as §1
# [8] = tested on: cleaved caspase-9 (D330); assay: Western blot analysis; format: cell-based, human; details: HeLa, 24 h, 25 and 50 nM
# Protocol: as §1
smiles,measurement,setting,value
"COc1cc(-c2ccnc3nc(Nc4ccc(C)cc4)nn23)cc(OC)c1OC [Compound 3d, N-(p-Tolyl)-7-(3,4,5-trimethoxyphenyl)-[1,2,4]triazolo[1,5-a]pyrimidin-2-amine]",necrotic cells (A−/PI+),"[1]; 50 nM, long incubation times",about 25%
same,induction of apoptosis,"[1]; HeLa, 24 or 48 h","induced, in a concentration- and time-dependent manner, apoptosis"
same,fold more potent than CA-4,[2]; A549 cells,4 fold
same,IC50,"[2]; Homo sapiens, A549, 72 h, resazurin, mean ± SE",0.043 ± 0.024 µM
same,toxicity to zebrafish embryos,[3]; 30 nM in fish water,no morphological abnormalities or embryonic lethality
same,toxicity to zebrafish embryos,"[3]; 300 nM in fish water, edema re-absorbed within the next 24 h",small yolk sac edema in the majority of 48 hpf embryos
same,cdc2 phosphorylation (Y15),[4],significant reduction in cdc2 phosphorylation (Y15)
same,ATR phosphorylation (Ser428),[5],considerable increase in ATR phosphorylation (Ser428)
same,Bcl-2 expression,[6],reduction in Bcl-2 expression starting at 10 nM
same,cyclin B expression,[7],increase in cyclin B expression
same,caspase-9 cleavage,[8],appearance of the cleaved fragment of caspase-9

# Reference: publication PMC9415608, “Design, Synthesis and Biological Investigation of 2-Anilino Triazolopyrimidines as Tubulin Polymerization Inhibitors with Anticancer Activities” (Pharmaceuticals, 2022)
